In paper PMC3646032 (PLoS ONE, 2013):
Values joined by “and” are separate entries in the source; they are usually repeats but may differ in a detail not shown here. Equal entries are not always repeated.

How the values were obtained:
[1] = biological target: EcSK (aroL-encoded SK from Erwinia chrysanthemi); parameters: method as in PMID 11369852; conditions: cited from earlier work
[2] = biological target: M. tuberculosis Shikimate Kinase (MtSK) (Mycobacterium tuberculosis, UniProt P9WPY3); format: biochemical
Chain of M. tuberculosis Shikimate Kinase (MtSK) (P9WPY3 2-176): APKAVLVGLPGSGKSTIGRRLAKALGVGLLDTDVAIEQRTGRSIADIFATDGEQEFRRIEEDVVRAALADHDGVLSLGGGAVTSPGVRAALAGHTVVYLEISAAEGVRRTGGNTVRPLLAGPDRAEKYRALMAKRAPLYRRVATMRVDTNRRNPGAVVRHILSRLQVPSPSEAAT

[3] = system: EcSK (SK from Erwinia chrysanthemi); parameters: method as in PMID 11369852; conditions: cited from earlier work
MtSK [4] = biological target: T1, MtSK (Mycobacterium tuberculosis, UniProt P9WPY3); test: biochemical; format: binding; conditions: 298.15 K, Hepes, pH 7.6
T1 sequence (P9WPY3 2-176): as above

[5] = system: E. coli SKII (aroL-encoded); conditions: cited from earlier work
MtSK [6] = biological target: T1, MtSK; conditions: cited from earlier work
[7] = system: E. coli SKI (aroK-encoded); conditions: cited from earlier work
[8] = 1-COOH, in solution; cited from earlier work
MtSK [9] = biological target: T1, MtSK; test: Equilibrium fluorescence spectroscopy, intrinsic tyrosine fluorescence; format: binding; conditions: 25°C, pH 7.6
Protocol: MtSK intrinsic protein fluorescence measurements were carried out to both determine the order of substrate/product addition/dissociation on/from the catalytic site and distinguish the enzyme kinetic mechanism. As MtSK has no tryptophan residues, changes in protein tyrosine fluorescence (the polypeptide chain of MtSK has 3 Tyr residues) upon ligand binding were monitored. Fluorescence measurements were carried out in a RF-5301 PC Spectrofluorophotometer (Shimadzu) at 25°C. Excitation wavelength was 280 nm and emission spectra were collected from 300 to 500 nm. The maximum values of fluorescence intensity at 315 nm values were plotted as a function of increasing ligand concentration. Excitation and emission slits were 5 nm. As protein tyrosine typically has a low sensitivity (low molar absorption coefficient and low fluorescence quantum yield), MtSK concentration for binding experiments was 10 µM. […]
Equilibrium fluorescence spectroscopy data were fitted to Eq. 4, in which F is the observed fluorescence, F 0 is the initial fluorescence, F ∞ is the maximum change in fluorescence at saturating ligand (L) concentration, and K D represents the equilibrium dissociation constant for protein:ligand binary complex formation.

For `Nc1ncnc2c1ncn2[C@@H]1O[C@H](COP(=O)(O)OP(=O)(O)OP(=O)(O)O)[C@@H](O)[C@H]1O` [ATP, adenosine 5'-triphosphate], the Kd [1] is given as 2600 µM, the “K MgATP (Michaelis constant)” value ([2]; pH 7.6) is given as 112 µM and 112 (±4) µM and the “k cat/KMgATP” value ([2]; true steady-state, 25°C, pH 7.6) is given as 5.4 (±0.7)×10^5 M^−1 s^−1. For the same compound, the “K MgATP” value [3] was 620 µM, the “k cat/KMgATP” value [3] was 56000 M⁻¹ s⁻¹ and the “-TΔS” value (MtSK [4]) was 0.044 (±0.007) kcal mol^−1. The Kd (MtSK [4]) was 196 µM, the ΔG (MtSK [4]) was −5.1 (±0.8) kcal mol^−1 and the ΔH (MtSK [4]) was −5.1 (±0.3) kcal mol^−1. For the same compound, the ΔS (MtSK [4]) was −0.15 (±0.02) cal mol^−1 K^−1, the “K MgATP” value [5] was 160 µM and the “k cat/KMgATP” value [5] was 200000 M⁻¹ s⁻¹. For the same compound, the “K MgATP” value (MtSK [6]) was 83 (±4) µM and the “k cat/KMgATP” value (MtSK [6]) was 530000 M⁻¹ s⁻¹.

For `c1c[nH]cn1` [imidazole], the “enzyme inhibition of MtSK activity” value ([2]; 50 mM imidazole in assay mixture) was “No enzyme inhibition” and the “enzyme velocity of MtSK” value ([2]; assay mixture containing 50 mM imidazole (9.2 U mL^−1 in its absence)) was 9.5 U mL^−1.

For `Nc1ncnc2c1ncn2[C@@H]1O[C@H](COP(=O)(O)OP(=O)(O)O)[C@@H](O)[C@H]1O` [ADP, adenosine 5′-diphosphate], the “-TΔS” value (MtSK [4]) was 7.9 (±0.2) kcal mol^−1, the Kd (MtSK [4]) was 562 µM and the ΔG (MtSK [4]) was −4.4 (±0.2) kcal mol^−1. The ΔH (MtSK [4]) was −12.4 (±0.2) kcal mol^−1 and the ΔS (MtSK [4]) was −27 (±1) cal mol^−1 K^−1.

For `O=C(O)C1=C[C@@H](O)[C@@H](O)[C@H](O)C1` [SKH, [3R-(3α,4α,5β)]3,4,5-trihydroxy-1-cyclohexene-1-carboxylic acid], the “K SKH” value [7] is listed as 20×10 ^3 µM, the KSKH [7] is listed as 20 mM and the “K SKH” value [3] is listed as 310 µM. For the same compound, the “K SKH” value [5] was 200 µM and the pK a [8] was 4.47.

For `O=C(O)C1=C[C@@H](OP(=O)(O)O)[C@@H](O)[C@H](O)C1` [S3P, shikimate 3-phosphate], the “binding to free enzyme detected by ITC” value (MtSK [4]) was “no binding” and the “change in intrinsic protein fluorescence upon binding to free MtSK” value (MtSK [9]) was “No change in protein fluorescence”.
